Experimental data from patent US9707212B2, “S-nitrosoglutathione reductase inhibitors” (Nivalis Therapeutics, Inc., priority 2010, dated 2017).

What was measured:
acute DSS-induced IBD = experiment: Acute prophylactic model of DSS-induced IBD in mice; assay type: in vivo, male C57Bl/6 mice; conditions: for effect on colon injury: mouse model of acute DSS-induced IBD; for decrease of percent of mice with severe colon injury scores via endoscopy, of vehicle control / decrease of percent of mice with severe colon injury scores via histopathology, of vehicle control: prophylactic regimen
Text: Acute and chronic models of dextran sodium sulfate (DSS)-induced IBD in mice were used to explore efficacy of GSNORi against this disease. Acute and chronic DSS-induced IBD are widely used and well characterized models that induce pathological changes in the colon similar to those observed in the human disease. In these models and in human disease, epithelial cells within the crypts of the colon are disrupted, leading to dysfunction of the epithelial barrier and the ensuing tissue inflammation, edema, and ulceration. GSNORi therapy may benefit IBD by restoring s-nitrosoglutathione (GSNO) levels, and thus prevent or reverse the epithelial barrier dysfunction. Experimental IBD was induced by administration of DSS in the drinking water of male C57Bl/6 mice (N=8 to 10 mice per group) for 6 consecutive days. GSNORi was dosed orally at doses of 0.1 to 10 mg/kg/day for 10 days starting two days prior to and continuing two days post DSS exposure. Two days post DSS exposure, the effect of GSNORi was assessed in a blinded fashion via endoscopy and histopathology using a five point scale ranging from a score=0 (normal tissue) through a score=4 (ulcerative tissue damage and marked pathological changes). Levels of circulating cytokines involved in inflammatory pathways were also assessed. The effect of GSNORi was compared to vehicle treated controls. The corticosteroid, prednisolone, was used as the positive control in this study and was administered daily at 3 mg/kg/day via oral dosing. Naïve mice (N=5) were also assessed as a normal tissue control.

[1] = Mouse pharmacokinetic (PK) study; assay type: in vivo, male BALB/c mice; conditions: mice; for bioavailability: male, BALB/c, mouse, plasma, PO 10 mg/kg, IV 2 mg/kg
Text: The mouse was used to determine the pharmacokinetics of compounds of the invention. This species is widely used to assess the bioavailability of compounds by administering both oral (PO) and intravenous (IV) test articles. Efficacy of the compounds of the invention was compared by assessing plasma exposure in male BALB/c mice either via IV or PO administration at the times of peak activity.
Compounds of the invention were reconstituted in a phosphate buffered saline (PBS)/10% Solutol (HS 15) clear solution resulting in a concentration of 0.2 mg/ml and administered to mice (2 mg/kg) as a single IV dose. Animals were dosed via the lateral tail vein. Blood samples were collected at designated time points (0.083, 0.25, 0.5, 1, 2, 4, 8, 16, 24 hours) by cardiac puncture under isoflurane anesthesia (up to 1 ml blood per animal). The blood was collected into tubes containing Li-Heparin. The blood samples were kept on ice until centrifugation within approximately 30 minutes of collection. The plasma was transferred into labeled polypropylene tubes and frozen at −70° C. until analyzed by LC/MS/MS.
The compounds of the invention were reconstituted in 40% Propylene Glycol/40% Propylene Carbonate/20% of a 5% Sucrose clear solution resulting in a concentration of 2 mg/ml and administered to mice (10 mg/kg) as a single oral dose via gavage. Blood samples were collected at 0.25, 0.5, 1, 2, 4, 8, 12, 16, 20 and 24 hours post dose by cardiac puncture under isoflurane anesthesia. The blood was collected in tubes containing Li-Heparin. The blood samples were kept on ice until centrifugation within approximately 30 minutes of collection. The plasma was transferred into labeled polypropylene tubes and frozen at −70° C. until analyzed by LC/MS/MS.
Plasma samples at each time point were analyzed using a LC-MS/MS with a lower limit of quantification (LLOQ) of 1 ng/ml. Plasma was analyzed to determine the amount of the compound of the invention in each sample and regression curves generated for each compounds of the invention in the relevant matrixes.
WinNonlin analysis was used for calculating PK parameters for both the IV and PO administrations: • PK parameters for IV portion—AUClast; AUCINF; T1/2; Cl; Vss; Cmax; MRT • PK parameters for PO portion—AUClast; AUCINF; T1/2; Cmax; Cl, MRT.
In addition to the above PK parameters, bioavailability (% F) was calculated.

[2] = system: cigarette smoke-induced COPD; experiment: Acute (4 day) cigarette smoke exposure COPD model; assay type: in vivo, female C57Bl/6 mice; conditions: oral 10 mg/kg/day for 7 days, acute 4 day smoke model
Method: The efficacy of GSNOR inhibitors was assessed in a mouse model of chronic obstructive pulmonary disease (COPD) induced by short duration (4 days or 11 days) of exposure to cigarette smoke. Infiltration of inflammatory cells into the bronchoalveolar lavage fluid (BALF) and BALF levels of chemokines involved in inflammation and tissue turnover/repair were measured to assess the influences of GSNOR inhibitors on some of the early events associated with the initiation and progression of COPD.
Efficacy of GSNOR inhibitors against COPD was explored using acute (4 day) and subchronic (11 day) models of cigarette smoke-induced COPD in mice. […] In animal models, changes in lung pathology are only evident after extended (several months) duration of exposure to cigarette smoke, thus making chronic models prohibitive as effective screening tools. More recently, models exploring inflammatory responses after short duration (2 weeks or less) of smoke exposure in mice have been utilized as tools for screening efficacy and mechanisms of action of novel therapeutics against COPD. The key roles of inflammation in the initiation and progression of COPD, make these short duration models relevant for initial tests of efficacy of novel therapeutics.
Female C57Bl/6 mice (N=8 per group) were exposed to cigarette smoke using a whole body exposure chamber. Mice were exposed daily for 4 consecutive days to 4 cycles of smoke from 6 sequential cigarettes (Kentucky 3R4F without filter) with a 30 minute smoke free interval between cycles. GSNOR inhibitors were administered daily via oral dosing at 10 mg/kg/day for 7 days starting 2 days prior to smoke exposure and continuing 1 day post-exposure. The effects of GSNOR inhibitors were assessed by quantitating the numbers of total cells, leukocytes, and leukocytes differentials in the BALF via light microscopy and the levels of BALF chemokines via ELISA at approximately 24 h after the last smoke exposure. The effect of GSNOR inhibitors were compared to vehicle treated controls. The PDE4 inhibitor, roflumilast, was used as the positive control for the study. A group of naïve mice (N=8) was exposed to air and used as a negative control for the study.

[3] = system: cigarette smoke-induced COPD; experiment: Subchronic (11 day) cigarette smoke exposure COPD model; assay type: in vivo, female C57Bl/6 mice; conditions: oral 1 mg/kg/day for 11 days, subchronic 11 day model
Method: The efficacy of GSNOR inhibitors was assessed in a mouse model of chronic obstructive pulmonary disease (COPD) induced by short duration (4 days or 11 days) of exposure to cigarette smoke. Infiltration of inflammatory cells into the bronchoalveolar lavage fluid (BALF) and BALF levels of chemokines involved in inflammation and tissue turnover/repair were measured to assess the influences of GSNOR inhibitors on some of the early events associated with the initiation and progression of COPD. Efficacy of GSNOR inhibitors against COPD was explored using acute (4 day) and subchronic (11 day) models of cigarette smoke-induced COPD in mice. […] In animal models, changes in lung pathology are only evident after extended (several months) duration of exposure to cigarette smoke, thus making chronic models prohibitive as effective screening tools. […] The effects of GSNOR inhibitors were assessed by quantitating the number of total cells, and leukocytes differentials in the BALF via light microscopy at 24 h after the last exposure. The effect of GSNOR inhibitors were compared to vehicle treated controls and expressed as percent inhibition of the cigarette smoke induced increases in BALF cell numbers. […]

[4] = oral 10 mg/kg/day for 10 consecutive days

SMILES	effect on colon injury (acute DSS-induced IBD)	decrease of percent of mice with severe colon injury scores via endoscopy, of vehicle control (acute DSS-induced IBD; [4]) [%]	decrease of percent of mice with severe colon injury scores via histopathology, of vehicle control (acute DSS-induced IBD; [4]) [%]	bioavailability [1] [%]	other results
O=c1c(-c2ccc(-c3nnn[nH]3)cc2)c(C(F)(F)F)oc2cc(O)ccc12 [Example 1, 3-(4-(1H-tetrazol-5-yl)phenyl)-7-hydroxy-2-(trifluoromethyl)-4H-chromen-4-one]	attenuated colon injury	75	17	4 to 41	–
O=c1c2ccc(O)cc2oc(C(F)(F)F)c1[C@H]1CC[C@H](C(=O)O)CC1 [Example 3, (trans)-4-(7-hydroxy-4-oxo-2-(trifluoromethyl)-4H-chromen-3-yl)cyclohexanecarboxylic acid]	attenuated colon injury	–	–	4 to 41	decrease of percent of mice with severe colon injury scores via endoscopy, of vehicle control (acute DSS-induced IBD; oral 0.1 mg/kg/day for 10 consecutive days): 38%; decrease of percent of mice with severe colon injury scores via endoscopy, of vehicle control (acute DSS-induced IBD; oral 1 mg/kg/day for 10 consecutive days): 25%; effect on BALF chemokines [2]: restored BALF chemokines towards levels observed in naïve mice; effects on BALF cells compared with roflumilast [2]: comparable to or greater than those observed for roflumilast; inhibition of smoke-induced increase in eosinophils in BALF [2]: 100%; inhibition of smoke-induced increase in leukocytes in BALF [2]: 100%; inhibition of smoke-induced increase in macrophages in BALF [2]: 100%; inhibition of smoke-induced increase in neutrophils in BALF [2]: 100%; inhibition of smoke-induced increase in total cells in BALF [2]: 100%
O=c1[nH]c(-c2ccc(-c3c(C(F)(F)F)oc4cc(O)ccc4c3=O)cc2)no1 [Example 9, 3-(4-(7-hydroxy-4-oxo-2-(trifluoromethyl)-4H-chromen-3-yl)phenyl)-1,2,4-oxadiazol-5(4H)-one]	–	–	–	4 to 41	–
Cc1sc2cc(O)ccc2c(=O)c1-c1ccc(-c2nnn[nH]2)cc1 [Example 12, 3-(4-(1H-tetrazol-5-yl)phenyl)-7-hydroxy-2-methyl-4H-thiochromen-4-one]	–	–	–	4 to 41	–
O=C(O)c1ccc(-c2c(C(F)(F)F)oc3cc(O)ccc3c2=O)c(F)c1 [Example 16, 3-fluoro-4-(7-hydroxy-4-oxo-2-(trifluoromethyl)-4H-chromen-3-yl)benzoic acid]	attenuated colon injury	58	15	~44	effects on BAL cells compared with roflumilast [3]: comparable to those of roflumilast
O=C(O)c1ccc(-c2c(C(F)(F)F)oc3cc(O)ccc3c2=O)cc1 [comparator compound, 4-(7-hydroxy-4-oxo-2-(trifluoromethyl)-4H-chromen-3-yl)benzoic acid, reference compound]	–	–	–	~17	clearance (Cl) relative to Example 16 [1]: about three times faster than Example 16
